Experimental data reported in ChEMBL document CHEMBL1141727, “Isolation and cytotoxic evaluation of marine sponge-derived norterpene peroxides” (J Nat Prod, 1998).

Tests used:
Format in all cases: functional
CCRF-CEM = assay: Growth inhibition of human CCRF-CEM cells
HCT-116 = assay: Growth inhibition of human HCT116 cells
OVCAR-8 = assay: Growth inhibition of human OVCAR8 cells
MCF7 = assay: Growth inhibition of human MCF7 cells
SK-MEL-2 = assay: Growth inhibition of human SK-MEL-2 cells
SK-MEL-28 = assay: Growth inhibition of human SK-MEL-28 cells
DU-145 = assay: Growth inhibition of human DU145 cells
COLO 205 = assay: Growth inhibition of human COLO205 cells
K562 = assay: Growth inhibition of human K562 cells
TK-10 = assay: Growth inhibition of human TK10 cells
EKVX = assay: Growth inhibition of human EKVX cells
SN12C = assay: Growth inhibition of human SN12C cells
OVCAR-5 = assay: Growth inhibition of human OVCAR5 cells
SF-539 = assay: Growth inhibition of human SF539 cells
CAKI-1 = assay: Growth inhibition of human Caki1 cells
SF-295 = assay: Growth inhibition of human SF295 cells
NCI-H322M = assay: Growth inhibition of human NCI-H322M cells
[1] = Growth inhibition of human Hs 578T cells
MDA-MB-231 = assay: Growth inhibition of human MDA-MB-231 cells
NCI-H522 = assay: Growth inhibition of human NCI-H522 cells
HOP-92 = assay: Growth inhibition of human HOP92 cells
786-0 = assay: Growth inhibition of human 786-0 cells
U-251 = assay: Growth inhibition of human U251 cells
ACHN = assay: Growth inhibition of human ACHN cells
HCT-15 = assay: Growth inhibition of human HCT15 cells
NCI-H226 = assay: Growth inhibition of human NCI-H226 cells
L1210 = assay: Growth inhibition of mouse L1210 cells assessed as zone units at 50 ug/disk by disk diffusion agar colony formation assay
[2] = Growth inhibition of human MCF7/ADR resistant cells; settings: NCI/ADR-RES
RXF 393 = assay: Growth inhibition of human […] cells
P388 = assay: Growth inhibition of mouse P388 cells assessed as zone units at 50 ug/disk by disk diffusion agar colony formation assay
KM12 = assay: Growth inhibition of human KM12 cells
MC-38 = assay: Growth inhibition of mouse C38 cells assessed as zone units at 50 ug/disk by disk diffusion agar colony formation assay
MOLT-4 = assay: Growth inhibition of human MOLT4 cells
UACC-62 = assay: Growth inhibition of human UACC62 cells
OVCAR-4 = assay: Growth inhibition of human OVCAR4 cells
HL-60(TB) = assay: Growth inhibition of human HL-60(TB) cells
A498 = assay: Growth inhibition of human A498 cells
OVCAR-3 = assay: Growth inhibition of human OVCAR-3 cells
HT-29 = assay: Growth inhibition of human HT-29 cells
BT-549 = assay: Growth inhibition of human BT549 cells
MDA-MB-435 = assay: Growth inhibition of human MDA-MB-435 cells
T47D = assay: Growth inhibition of human T47D cells
SNB-75 = assay: Growth inhibition of human SNB75 cells
UO-31 = assay: Growth inhibition of human UO31 cells
SK-MEL-5 = assay: Growth inhibition of human SK-MEL-5 cells
SR = assay: Growth inhibition of human SR cells
UACC-257 = assay: Growth inhibition of human UACC257 cells
NCI-H23 = assay: Growth inhibition of human NCI-H23 cells
IGROV-1 = assay: Growth inhibition of human IGROV1 cells
LOX IMVI = assay: Growth inhibition of human LOXIMVI cells
M14 = assay: Growth inhibition of human M14 cells
SK-OV-3 = assay: Growth inhibition of human SKOV3 cells
CX-1 = assay: Growth inhibition of human CX-1 cells assessed as zone units at 50 ug/disk by disk diffusion agar colony formation assay
A549 = assay: Growth inhibition of human A549 cells
Malme-3M = assay: Growth inhibition of human MALME-3M cells
[3] = Growth inhibition of human […] cells
SNB-19 = assay: Growth inhibition of human SNB19 cells
[4] = Growth inhibition of mouse M17/ADR cells assessed as zone units at 50 ug/disk by disk diffusion agar colony formation assay
SW-620 = assay: Growth inhibition of human SW620 cells
PC-3 = assay: Growth inhibition of human PC3 cells
HCC 2998 = assay: Growth inhibition of human HCC2998 cells
MDA-N = assay: Growth inhibition of human MDA-N cells
HOP-62 = assay: Growth inhibition of human HOP62 cells
NCI-H460 = assay: Growth inhibition of human NCI-H460 cells

In the case of `C=C1CCCC(C)(C)C1CCC1(C)CC[C@H]([C@@H](C)C(=O)O)OO1` (single isomer, unassigned) [NAPAPUIN B], the GI50 (CCRF-CEM) is reported as 1760 nM, the GI50 (HCT-116) is reported as 5.19 µM and the GI50 (OVCAR-8) is reported as greater than 12.5 µM. For the same compound, the GI50 (MCF7) was greater than 12.5 µM, the GI50 (SK-MEL-2) was 5.06 µM and the GI50 (SK-MEL-28) was greater than 12.5 µM. It also gave a GI50 (DU-145) of 2710 nM, a GI50 (COLO 205) of 8.31 µM and a GI50 (K562) of 3.3 µM. It also gave a GI50 (TK-10) of 4.06 µM, a GI50 (EKVX) of 3.19 µM and a GI50 (SN12C) of 11.3 µM. The GI50 (OVCAR-5) was greater than 12.5 µM, the GI50 (SF-539) was 3.28 µM and the GI50 (CAKI-1) was 2000 nM. For the same compound, the GI50 (SF-295) was 5.44 µM, the GI50 (NCI-H322M) was 12.5 µM and the GI50 [1] was 8.74 µM. It also gave a GI50 (MDA-MB-231) of 7.44 µM, a GI50 (NCI-H522) of 1210 nM and a GI50 (HOP-92) of 2230 nM. The GI50 (786-0) was 940 nM, the GI50 (U-251) was 4.33 µM and the GI50 (ACHN) was 7.83 µM. The GI50 (HCT-15) was 10.7 µM, the GI50 (NCI-H226) was 12.5 µM and the Activity (L1210) was 230 Zone units. It also gave a GI50 [2] of 8.78 µM, a GI50 (RXF 393) of 5.04 µM and an Activity (P388) of 230 Zone units. It also gave a GI50 (KM12) of 4.82 µM, an Activity (MC-38) of 300 Zone units and a GI50 (MOLT-4) of 2160 nM. The GI50 (UACC-62) was 9.24 µM, the GI50 (OVCAR-4) was 2400 nM and the GI50 (HL-60(TB)) was 1630 nM. For the same compound, the GI50 (A498) was greater than 12.5 µM, the GI50 (OVCAR-3) was 2490 nM and the GI50 (HT-29) was 9.26 µM. For the same compound, the GI50 (BT-549) was 1050 nM, the GI50 (MDA-MB-435) was 2690 nM and the GI50 (T47D) was 3.35 µM. The GI50 (SNB-75) was 3.39 µM, the GI50 (UO-31) was 4.31 µM and the GI50 (SK-MEL-5) was 6.14 µM. For the same compound, the GI50 (SR) was 1800 nM, the GI50 (UACC-257) was greater than 12.5 µM and the GI50 (NCI-H23) was 7.61 µM. The GI50 (IGROV-1) was 630 nM, the GI50 (LOX IMVI) was 250 nM and the GI50 (M14) was 12.2 µM. For the same compound, the GI50 (SK-OV-3) was 9.24 µM, the Activity (CX-1) was 200 Zone units and the GI50 (A549) was 3.05 µM. For the same compound, the GI50 (Malme-3M) was greater than 12.5 µM, the GI50 [3] was 3.91 µM and the GI50 (SNB-19) was greater than 12.5 µM. The Activity [4] was 330 Zone units, the GI50 (SW-620) was 7.23 µM and the GI50 (PC-3) was greater than 12.5 µM. It also gave a GI50 (HCC 2998) of 6.78 µM, a GI50 (MDA-N) of 3.52 µM and a GI50 (HOP-62) of 2110 nM. The GI50 (NCI-H460) was 1830 nM.
